Read-outs that look alike come from different tables or passages of the source.
Legend:
human DGKα = target: T1, human DGKα (Homo sapiens, UniProt P23743); experiment: DGKα LIPGLO assay (extruded liposome substrate), in vitro DGK inhibition; format: biochemical; settings: liposome (LIPGLO) assay; read-out: DGKa LIPGLO IC50
T1 construct: TVMV protease cleavage site (C); Hexa-His (C); made in house; host or cells: Sf9 insect cells (baculovirus, Bac-to-Bac)

human DGKζ = target: T2, human DGKζ (Homo sapiens, UniProt Q13574); experiment: DGKζ LIPGLO assay (extruded liposome substrate), in vitro DGK inhibition; format: biochemical; settings: liposome (LIPGLO) assay; read-out: DGKz LIPGLO IC50
T2 construct: TVMV protease cleavage site (C); Hexa-His (C); made in house; host or cells: Sf9 insect cells (baculovirus, Bac-to-Bac)
T2 sequence (Q13574 with tags, fused parts or gaps isoform Q13574-4): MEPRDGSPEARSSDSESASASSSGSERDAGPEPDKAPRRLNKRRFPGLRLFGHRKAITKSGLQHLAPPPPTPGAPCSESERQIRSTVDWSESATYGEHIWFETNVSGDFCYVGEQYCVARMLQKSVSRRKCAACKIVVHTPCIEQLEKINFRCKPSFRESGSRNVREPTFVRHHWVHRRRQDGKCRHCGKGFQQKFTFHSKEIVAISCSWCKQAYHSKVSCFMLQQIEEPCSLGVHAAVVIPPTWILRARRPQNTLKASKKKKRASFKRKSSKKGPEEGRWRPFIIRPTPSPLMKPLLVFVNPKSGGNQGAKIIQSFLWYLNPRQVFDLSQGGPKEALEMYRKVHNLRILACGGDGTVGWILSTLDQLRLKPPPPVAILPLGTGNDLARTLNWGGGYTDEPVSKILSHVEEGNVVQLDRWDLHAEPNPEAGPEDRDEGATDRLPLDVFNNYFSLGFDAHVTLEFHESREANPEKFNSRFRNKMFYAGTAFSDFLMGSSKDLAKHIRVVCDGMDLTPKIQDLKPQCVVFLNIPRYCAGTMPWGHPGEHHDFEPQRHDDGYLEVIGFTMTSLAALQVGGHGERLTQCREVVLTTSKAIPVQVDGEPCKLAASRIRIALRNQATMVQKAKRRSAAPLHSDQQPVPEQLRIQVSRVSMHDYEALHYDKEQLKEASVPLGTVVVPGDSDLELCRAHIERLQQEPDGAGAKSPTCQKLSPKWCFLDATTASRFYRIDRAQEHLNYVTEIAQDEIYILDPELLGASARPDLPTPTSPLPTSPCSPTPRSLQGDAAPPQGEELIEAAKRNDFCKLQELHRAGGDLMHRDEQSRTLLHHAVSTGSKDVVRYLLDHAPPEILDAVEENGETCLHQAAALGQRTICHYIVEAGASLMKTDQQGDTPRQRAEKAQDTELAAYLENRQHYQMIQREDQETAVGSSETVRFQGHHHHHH

Human venous whole blood = experiment: Human whole blood IFN-γ assay; format: cell-based; settings: human whole blood, normalized to 3 μM reference compound with anti-CD3 plus anti-CD28 as 100% activation, read-out: INFg Whole Blood Normalized Agonist EC50;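 note: blood from healthy donors exposed to compound for 1 h before stimulation with anti-CD3 and anti-CD28 at 1 µg/mL each, IFN-γ quantified in supernatant by AlphaLISA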
Description: Human Whole Blood IFN-γ Assay
Human venous whole blood (22.5 μL per well), obtained from healthy donors, was pre-treated with compounds for one hour at 37° C. in a humidified 95% air/5% CO2 incubator. The blood was stimulated with 2.5 μL anti-human CD3 and anti-CD28 mAb at a final concentration of 1 μg/mL each for 24 hours at 37° C. IFN-γ in the supernatants was measured using AlphLISA kit (Cat # AL217).

T1 sequence (P23743 with tags, fused parts or gaps): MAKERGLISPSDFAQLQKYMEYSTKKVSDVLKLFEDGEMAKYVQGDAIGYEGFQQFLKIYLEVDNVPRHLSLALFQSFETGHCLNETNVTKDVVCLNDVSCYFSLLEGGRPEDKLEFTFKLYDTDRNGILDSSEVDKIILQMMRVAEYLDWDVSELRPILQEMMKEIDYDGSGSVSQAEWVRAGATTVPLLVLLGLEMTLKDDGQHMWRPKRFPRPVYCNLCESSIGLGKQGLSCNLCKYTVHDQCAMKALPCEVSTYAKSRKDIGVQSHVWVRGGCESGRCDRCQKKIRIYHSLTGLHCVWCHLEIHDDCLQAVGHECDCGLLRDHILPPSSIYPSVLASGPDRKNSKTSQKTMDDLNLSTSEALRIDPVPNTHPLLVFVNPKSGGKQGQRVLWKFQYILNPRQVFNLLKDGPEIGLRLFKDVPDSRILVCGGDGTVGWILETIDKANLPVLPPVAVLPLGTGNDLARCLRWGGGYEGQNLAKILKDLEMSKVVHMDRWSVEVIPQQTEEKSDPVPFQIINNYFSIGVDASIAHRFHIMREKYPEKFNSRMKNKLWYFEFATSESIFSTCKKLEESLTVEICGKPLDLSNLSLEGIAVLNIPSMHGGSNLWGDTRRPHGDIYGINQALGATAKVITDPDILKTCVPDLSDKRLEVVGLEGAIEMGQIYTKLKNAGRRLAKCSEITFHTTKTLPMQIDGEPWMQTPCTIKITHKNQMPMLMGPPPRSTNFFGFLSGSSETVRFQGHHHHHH

Row | SMILES | IC50 (human DGKα) [µM] | IC50 (human DGKζ) [µM] | EC50 (Human venous whole blood) [µM] | EC50 (Human venous whole blood; Homo sapiens, 24 h) [µM]
1 | CC(c1cc(F)cc(OC(F)(F)F)c1)N1C[C@H](C)N(c2cc(=O)n(C)c3ccc(C#N)nc23)C[C@H]1C (single isomer, unassigned) [Example 1210] | 9.3 | 0.018 | 0.88 | 
2 | CC(c1cc(F)cc(OC(F)(F)F)c1)N1C[C@H](C)N(c2cc(=O)n(C)c3ccc(C#N)nc23)C[C@H]1C (single isomer, unassigned) [Example 1211] | 13 | 0.67 | 8.3 | 
3 | CC(c1ccccc1OC(F)(F)F)N1C[C@H](C)N(c2cc(=O)n(C)c3ccc(C#N)nc23)C[C@H]1C (single isomer, unassigned) [Example 1212] | 23 | 0.11 |  | 11
4 | CC(c1ccccc1OC(F)(F)F)N1C[C@H](C)N(c2cc(=O)n(C)c3ccc(C#N)nc23)C[C@H]1C (single isomer, unassigned) [Example 1213] | 56 | 3.6 | 8.4 | 
5 | CC(c1ccc(C2CC2)cc1)N1C[C@H](C)N(c2cc(=O)n(C)c3ccc(C#N)nc23)C[C@H]1C (single isomer, unassigned) [Example 1214] | 0.075 | 0.075 | 0.22 | 
6 | CC(c1ccc(C2CC2)cc1)N1C[C@H](C)N(c2cc(=O)n(C)c3ccc(C#N)nc23)C[C@H]1C (single isomer, unassigned) [Example 1215] | 0.72 | 0.68 | 7.2 | 
7 | CC(c1cccc2c1OC(F)(F)O2)N1C[C@H](C)N(c2cc(=O)n(C)c3ccc(C#N)nc23)C[C@H]1C (single isomer, unassigned) [Example 1216] | 83 | 0.15 | 1.8 | 
8 | CC(c1cccc2c1OC(F)(F)O2)N1C[C@H](C)N(c2cc(=O)n(C)c3ccc(C#N)nc23)C[C@H]1C (single isomer, unassigned) [Example 1217] | 37 | 2.1 | 4.6 | 
9 | CCC(c1ccc(C2CC2)cc1)N1C[C@H](C)N(c2cc(=O)n(C)c3ccc(C#N)nc23)C[C@H]1C (single isomer, unassigned) [Example 1220] | 0.11 | 0.095 | 0.12 | 
10 | CCC(c1ccc(C2CC2)cc1)N1C[C@H](C)N(c2cc(=O)n(C)c3ccc(C#N)nc23)C[C@H]1C (single isomer, unassigned) [Example 1221] | 0.85 | 2.7 | 4.2 | 
11 | CC(c1ccc(OC(F)F)cn1)N1C[C@H](C)N(c2cc(=O)n(C)c3ccc(C#N)nc23)C[C@H]1C (single isomer, unassigned) [Example 1224] | 0.041 | 1.4 | 1.8 | 
12 | CC(c1ccc(OC(F)F)cn1)N1C[C@H](C)N(c2cc(=O)n(C)c3ccc(C#N)nc23)C[C@H]1C (single isomer, unassigned) [Example 1225] | 0.15 | 1.2 | 7.7 | 
13 | CC(c1ccc(C#N)cc1F)N1C[C@H](C)N(c2cc(=O)n(C)c3ccc(C#N)nc23)C[C@H]1C (single isomer, unassigned) [Example 1226] | 0.75 | 1.7 | 8.7 | 
14 | CC(c1ccc(C#N)cc1F)N1C[C@H](C)N(c2cc(=O)n(C)c3ccc(C#N)nc23)C[C@H]1C (single isomer, unassigned) [Example 1227] | 0.051 | 0.11 | 0.67 | 
15 | CC(c1cc(OC(F)F)ccc1F)N1C[C@H](C)N(c2cc(=O)n(C)c3ccc(C#N)nc23)C[C@H]1C (single isomer, unassigned) [Example 1229] | 0.3 | 0.16 |  | 0.51
16 | COc1cc(C(C)N2C[C@H](C)N(c3cc(=O)n(C)c4ccc(C#N)nc34)C[C@H]2C)ccc1F (single isomer, unassigned) [Example 1231] | 3.8 | 0.11 | 1.2 | 
17 | COc1cc(C(C)N2C[C@H](C)N(c3cc(=O)n(C)c4ccc(C#N)nc34)C[C@H]2C)ccc1F (single isomer, unassigned) [Example 1232] | 33 | 1.4 | 20 | 
18 | CC(C)c1ccc(C(C)N2C[C@H](C)N(c3cc(=O)n(C)c4ccc(C#N)nc34)C[C@H]2C)cc1 (single isomer, unassigned) [Example 1233] | 0.29 | 0.1 | 0.38 | 
19 | CC(C)c1ccc(C(C)N2C[C@H](C)N(c3cc(=O)n(C)c4ccc(C#N)nc34)C[C@H]2C)cc1 (single isomer, unassigned) [Example 1234] | 2.2 | 1.4 | 5.4 | 
20 | COc1cc(F)ccc1C(C)N1C[C@H](C)N(c2cc(=O)n(C)c3ccc(C#N)nc23)C[C@H]1C (single isomer, unassigned) [Example 1236] | 11 | 0.043 | 1.3 | 

Row | SMILES | IC50 (human DGKα) [µM] | IC50 (human DGKζ) [µM] | EC50 (Human venous whole blood) [µM] | EC50 (Human venous whole blood; Homo sapiens, 24 h) [µM]
21 | COc1cc(F)ccc1C(C)N1C[C@H](C)N(c2cc(=O)n(C)c3ccc(C#N)nc23)C[C@H]1C (single isomer, unassigned) [Example 1237] | 6.1 | 0.58 | 12 | 
22 | CC(c1ccc(-n2cncn2)cc1)N1C[C@H](C)N(c2cc(=O)n(C)c3ccc(C#N)nc23)C[C@H]1C (single isomer, unassigned) [Example 1238] | 0.2 | 3.2 | 9.7 | 
23 | CC(c1ccc(-n2cncn2)cc1)N1C[C@H](C)N(c2cc(=O)n(C)c3ccc(C#N)nc23)C[C@H]1C (single isomer, unassigned) [Example 1239] | 26 | 23 | 20 | 
24 | COc1cc(F)c(C(C)N2C[C@H](C)N(c3cc(=O)n(C)c4ccc(C#N)nc34)C[C@H]2C)cc1OC (single isomer, unassigned) [Example 1246] | 11 | 0.1 | 2.1 | 
25 | COc1cc(F)c(C(C)N2C[C@H](C)N(c3cc(=O)n(C)c4ccc(C#N)nc34)C[C@H]2C)cc1OC (single isomer, unassigned) [Example 1247] | 24 | 7.4 | 20 | 
26 | CC(c1ccc(C2(C#N)CC2)cc1F)N1C[C@H](C)N(c2cc(=O)n(C)c3ccc(C#N)nc23)C[C@H]1C (single isomer, unassigned) [Example 1251] | 1.6 | 0.25 |  | 3.9
27 | CC(c1ccc(C2(C#N)CC2)cc1F)N1C[C@H](C)N(c2cc(=O)n(C)c3ccc(C#N)nc23)C[C@H]1C (single isomer, unassigned) [Example 1252] | 5.7 | 3.1 |  | 7.7
28 | CC(c1ccc(F)c(Cl)c1)N1C[C@H](C)N(c2cc(=O)n(C)c3ccc(C#N)nc23)C[C@H]1C (single isomer, unassigned) [Example 1256] | 0.68 | 0.18 | 0.48 | 
29 | CC(c1ccc(F)c(Cl)c1)N1C[C@H](C)N(c2cc(=O)n(C)c3ccc(C#N)nc23)C[C@H]1C (single isomer, unassigned) [Example 1257] | 7.9 | 1.1 | 1.7 | 
30 | CC(c1ccc2c(c1)OCCO2)N1C[C@H](C)N(c2cc(=O)n(C)c3ccc(C#N)nc23)C[C@H]1C (single isomer, unassigned) [Example 1258] | 2.2 | 0.015 |  | 2.6
31 | CC(c1ccc2c(c1)OCCO2)N1C[C@H](C)N(c2cc(=O)n(C)c3ccc(C#N)nc23)C[C@H]1C (single isomer, unassigned) [Example 1259] | 5.6 | 0.67 | 4.9 | 
32 | CC(c1cccc(OC(F)(F)F)c1)N1C[C@H](C)N(c2cc(=O)n(C)c3ccc(C#N)nc23)C[C@H]1C (single isomer, unassigned) [Example 1267] | 3.5 | 0.11 |  | 0.73
33 | CC(c1cccc(OC(F)(F)F)c1)N1C[C@H](C)N(c2cc(=O)n(C)c3ccc(C#N)nc23)C[C@H]1C (single isomer, unassigned) [Example 1268] | 2.1 | 1 |  | 5.2
34 | CC(c1ccc(OC(F)(F)F)c(F)c1)N1C[C@H](C)N(c2cc(=O)n(C)c3ccc(C#N)nc23)C[C@H]1C (single isomer, unassigned) [Example 1269] | 0.12 | 0.47 | 0.54 | 
35 | CC(c1ccc(OC(F)(F)F)c(F)c1)N1C[C@H](C)N(c2cc(=O)n(C)c3ccc(C#N)nc23)C[C@H]1C (single isomer, unassigned) [Example 1270] | 1.7 | 2.7 | 8 | 
36 | CC(c1csc(C(F)(F)F)n1)N1C[C@H](C)N(c2cc(=O)n(C)c3ccc(C#N)nc23)C[C@H]1C (single isomer, unassigned) [Example 1273] | 0.18 | 0.36 |  | 1.7
37 | COCC(c1ccc(C(F)(F)F)cn1)N1C[C@H](C)N(c2cc(=O)n(C)c3ccc(C#N)nc23)C[C@H]1C (single isomer, unassigned) [Example 1277] | 0.069 | 0.61 |  | 1.4
38 | COCC(c1ccc(C(F)(F)F)cn1)N1C[C@H](C)N(c2cc(=O)n(C)c3ccc(C#N)nc23)C[C@H]1C (single isomer, unassigned) [Example 1278] | 0.22 | 0.4 | 2 | 
39 | C[C@@H]1CN(c2cc(=O)n(C)c3ccc(C#N)nc23)[C@@H](C)CN1C(CO)c1ccc(C(F)(F)F)cn1 (single isomer, unassigned) [Example 1280] | 1.3 | 8.5 |  | 9.9
40 | CC(c1cc(C2CC2)on1)N1C[C@H](C)N(c2cc(=O)n(C)c3ccc(C#N)nc23)C[C@H]1C (single isomer, unassigned) [Example 1281] | 0.49 | 1.1 | 1.6 | 

— patent publication US10669272B2, “Substituted naphthyridinone compounds useful as T cell activators” (BRISTOL-MYERS SQUIBB COMPANY, priority 2018, dated 2020)
